Here are results for 5 compounds from US9949971B2, “Therapeutic combinations of a BTK inhibitor, a PI3K inhibitor and/or a JAK-2 inhibitor” (Acerta Pharma B.V., priority 2014, dated 2018).

For series [1], the system named is NK cells. Briefly: rituximab ADCC mediated by NK cells. It counts as cell-based. From the text:
H. E. Kohrt, et al., Blood 2014, 123, 1957-60.

Series [2] relates to GPVI. Briefly: GPVI platelet aggregation (Convulxin-induced). It counts as cell-based, human. The conditions noted are these: for inhibition of GPVI platelet aggregation: human platelets, CVX-induced. As to the method:
GPVI platelet aggregation was measured for Formula (XVIII) and Formula XX-A (ibrutinib). Blood was obtained from untreated humans, and platelets were purified from […] by centrifugation. Cells were resuspended to a final concentration of 350,000/μL in buffer containing 145 mmol/L NaCl, 10 mmol/L HEPES, 0.5 mmol/L Na2HPO4, 5 mmol/L KCl, 2 mmol/L MgCl2, 1 mmol/L CaCl2, and 0.1% glucose, at pH 7.4. Stock solutions of […] were prepared on the day of experimentation and added to platelet suspensions 5 minutes (37° C., 1200 rpm) before the induction of aggregation. Aggregation was assessed with a Chronolog Lumi-Aggregometer (model 540 VS; Chronolog, Havertown, Pa.) and permitted to proceed for 6 minutes after the addition of agonist. The results are reported as maximum percent change in light transmittance from baseline with platelet buffer used as a reference.
In FIG. 97, the results of CVX-induced (250 ng/mL) human platelet aggregation results before and 15 minutes after administration of the BTK inhibitors to 6 healthy individuals are shown.

The test system of series [3] is human platelet-mediated thrombosis. Briefly: in vivo human thrombus formation in the VWF HA1 mice model (laser injury). The conditions noted are these: human platelets preincubated with BTK inhibitor, laser-induced injury.
Protocol: Purified human platelets were preincubated with various concentrations of the BTK inhibitors (0.1 μM, 0.5 μM, or 1 μM) or DMSO and then administered to VWF HA1 mice, followed by laser-induced thrombus formation.
The objective of this study was to evaluate in vivo thrombus formation in the presence of BTK inhibitors.
Series [4] concerns previously treated CLL. As to conditions: Phase 1, monotherapy; cited from earlier work.
The conditions of series [5]: in vivo; cited from earlier work.
A short description of series [6]: functional observation battery (GLP safety pharmacology). The conditions noted are these: rats, doses through 300 mg/kg (the highest dose level).
Series [7] concerns B cell lymphoma. Briefly: veterinary clinical trial in canine lymphoma. In kind it is in vivo, dog. As to conditions: companion dogs with B cell lymphoma.
Series [8] relates to mouse, rat, dog, rabbit, monkey, and human hepatocytes. As to the kind of experiment: In vitro metabolism studies in hepatocytes with 14C-labeled compound. It counts as in vitro ADME.
Series [9] relates to NK cells and monocytic MDSC subsets. Briefly: Flow cytometry of peripheral blood cell subsets in CLL patients, predose vs 28 days. It counts as in vivo, human. The conditions noted are these: patients with falling ALC counts; after 28 days of dosing. As to the method:
PBMCs were stained with monoclonal antibodies conjugated to fluorescent tags (flourochromes) to identify cell subsets via flow cytometry. Non-viable cells were excluded from the analysis using the dye 7-aminoactinomycin D (7-AAD). To produce the metric of percent change, the following steps were taken. First, each cell subset was defined by hierarchical flow cytometry gating. Then, the change in frequency (between day 1 and day 28) was calculated for each cell subset. MDSC subsets were measured as a % of all myeloid cells. T cell subsets were measured as a % of all CD3^+ cells, and NK cells were measured as a % of all live CD45^+ cells. […] A cycle is 28 days. A trend is observed wherein patients with decreasing ALC % had increasing MDSC (monocytic) %. This may include patients who had quickly resolving lymphocytosis and those with no initial lymphocytosis. […] This may include patients who had quickly resolving lymphocytosis and those having no initial lymphocytosis. The effects in FIG. 107 to FIG. 110 are observed in multiple cohorts, at doses including 100 mg BID, 200 mg QD, and 400 mg QD. In FIG. 111 and FIG. 112, the effects on NK cells and MDSC cells are compared to a number of other markers versus % change in ALC at C1D28 and C2D28. These other markers include CD4+ T cells, CD8+ T cells, CD4+/CD8+ T cell ratio, NK-T cells, PD-1+ CD4+ T cells, and PD-1+ CD8+ T cells. […]
On the technique in general: Flow cytometry measures light scatter and fluorescence of single cells or particles in a stream.

Series [10] deals with NK cells. Briefly: NK cell degranulation/ADCC whole blood assay with obinutuzumab. In kind it is cell-based, human. As to conditions: whole blood pretreated 1 hour, MEC-1 cells opsonised with obinutuzumab 1 μg/mL, 4 hours, n=3.
Protocol: Degranulation in whole blood was performed as follows. […] Exponentially growing cells were used. On the day of the experiment, 8 mL of blood was drawn from a normal volunteer into a test tube containing desirudin to obtain a final concentration of 50 μg/mL. A white blood cell (WBC) count of whole blood was performed. […] 170 μL aliquots of unmanipulated whole blood were incubated with 10 μL BTK inhibitors or X-VIVO 15 medium for one hour into a plate. […] The samples were placed in a 5% CO2 incubator for 4 hours at 37° C.
After 4 hours, the samples were mixed gently and 50 μL aliquots were removed from each well and placed in fluorescence-activated cell sorting (FACS) test tubes. A 20 μL aliquot of anti-CD56-APC antibody and anti-CD107a-PE antibody was added. The samples were incubated for 20 minutes at room temperature in the dark. An aliquot of 2 mL of FACS lysing solution (BD Biosceinces) was added. The samples were again incubated for 5 minutes, and then centrifuged at 2000 rpm for 5 minutes. Supernatant was discarded and the cell pellet was resuspended in 500 μL of PBS. The samples were analyzed on the flow cytometer for CD107a^+ NK cells (CD56^+).
In series [11] the test system is BCR. As to the kind of experiment: in vivo potency: BCR activation markers CD69 and CD86 after IgM stimulation. More on the design: species or system mouse. The conditions noted are these: mice gavaged, 3 hours post-dose, BCR stimulated with IgM, flow cytometry. The procedure: Mice were gavaged at increasing drug concentration and sacrificed at one time point (3 hours post-dose). BCR is stimulated with IgM and the expression of activation markers CD69 and CD86 are monitored by flow cytometry to determine EC50values.
CD86 and CD69 are cell surface proteins that are BCR activation markers. […] BCR was stimulated with IgM and the expression of activation marker CD69 and CD86 are monitored by flow cytometry and to determine EC50 values.

Series [12] concerns the target CYP3A4 (Homo sapiens, UniProt P08684). As to the kind of experiment: In vitro loss of parent drug as catalyzed by CYPs; nonclinical CYP interaction studies. In kind it is in vitro ADME.
Series [13] deals with T1, BTK (Mus musculus, UniProt P35991).
T1 construct: MDSCs were purified from tumor bearing PDA mice; endogenous in cells; host or cells: granulocytic and monocytic MDSCs from tumor bearing PDA mice
Briefly: Molecular probe assay of irreversible BTK occupancy in MDSCs from tumor bearing PDA mice. In kind it is in vivo. As to conditions: 15 mg/kg BID, Day 8, 4 hours post dose (N=5). From the text:
A molecular probe assay was used to calculate the percent irreversible occupancy of total BTK.

Series [14] is described as follows: Glutathione binding and depletion in vitro. In kind it is in vitro ADME.
A short description of series [15]: study of respiratory function (GLP safety pharmacology). The conditions noted are these: rats, doses through 300 mg/kg (the highest dose level).
For series [16], the target named is EGFR (Homo sapiens, UniProt P00533). As to the kind of experiment: in vitro EGFR phosphorylation in A431 cells. As to conditions: 10 μM, A431 human epidermoid cancer cell line.
In series [17] the test system is signals through the B cell receptor (CD69 on gated CD19+ B cells). As to the kind of experiment: Whole blood inhibition of B cell receptor signals (anti-IgD induced CD69 on CD19+ B cells, flow cytometry). It counts as cell-based. As to conditions: whole blood of four healthy donors, 2 h incubation, anti-human IgD 10 μg/mL 18 h. The procedure: Blood from four healthy donors was incubated for 2 hours with the compounds shown over a concentration range, and then stimulated with anti-human IgD [10 μg/mL] for 18 hours. The mean fluorescent intensity (MFI) of CD69 (and CD86, data not shown) on gated CD19+ B cells was measured by flow cytometry.

CYP3A4, sequence (P08684 whole entry): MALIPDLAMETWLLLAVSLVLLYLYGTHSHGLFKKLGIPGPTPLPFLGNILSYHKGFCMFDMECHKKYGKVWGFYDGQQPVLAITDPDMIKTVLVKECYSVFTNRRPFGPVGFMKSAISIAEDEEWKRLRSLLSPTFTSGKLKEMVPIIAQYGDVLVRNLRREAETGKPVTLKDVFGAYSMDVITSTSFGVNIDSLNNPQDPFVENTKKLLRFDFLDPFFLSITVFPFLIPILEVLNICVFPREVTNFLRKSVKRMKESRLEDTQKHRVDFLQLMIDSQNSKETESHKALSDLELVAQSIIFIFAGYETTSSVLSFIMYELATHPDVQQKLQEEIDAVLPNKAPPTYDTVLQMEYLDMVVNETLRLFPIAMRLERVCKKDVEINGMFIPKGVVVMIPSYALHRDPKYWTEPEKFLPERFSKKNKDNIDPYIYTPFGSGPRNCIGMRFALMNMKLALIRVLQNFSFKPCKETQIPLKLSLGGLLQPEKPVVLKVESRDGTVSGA
T1 sequence (P35991 whole entry): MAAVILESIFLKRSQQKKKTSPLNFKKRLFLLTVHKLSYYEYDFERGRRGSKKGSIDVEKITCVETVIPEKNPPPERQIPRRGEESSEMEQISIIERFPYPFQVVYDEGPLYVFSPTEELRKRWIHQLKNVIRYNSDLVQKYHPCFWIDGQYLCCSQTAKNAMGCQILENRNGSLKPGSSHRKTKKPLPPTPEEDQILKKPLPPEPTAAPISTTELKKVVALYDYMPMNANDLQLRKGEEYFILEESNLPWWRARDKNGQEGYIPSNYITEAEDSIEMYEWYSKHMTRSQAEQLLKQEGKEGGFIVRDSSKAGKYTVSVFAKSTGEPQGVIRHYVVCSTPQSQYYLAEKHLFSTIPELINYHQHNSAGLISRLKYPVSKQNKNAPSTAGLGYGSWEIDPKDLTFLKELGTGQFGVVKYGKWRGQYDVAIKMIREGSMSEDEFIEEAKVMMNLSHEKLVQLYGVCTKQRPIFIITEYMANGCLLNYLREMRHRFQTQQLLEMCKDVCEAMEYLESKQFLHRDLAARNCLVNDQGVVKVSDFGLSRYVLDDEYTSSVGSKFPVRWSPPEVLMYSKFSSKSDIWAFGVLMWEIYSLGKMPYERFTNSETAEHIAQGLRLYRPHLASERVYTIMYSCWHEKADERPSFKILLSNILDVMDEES
EGFR, sequence (P00533 25-1210): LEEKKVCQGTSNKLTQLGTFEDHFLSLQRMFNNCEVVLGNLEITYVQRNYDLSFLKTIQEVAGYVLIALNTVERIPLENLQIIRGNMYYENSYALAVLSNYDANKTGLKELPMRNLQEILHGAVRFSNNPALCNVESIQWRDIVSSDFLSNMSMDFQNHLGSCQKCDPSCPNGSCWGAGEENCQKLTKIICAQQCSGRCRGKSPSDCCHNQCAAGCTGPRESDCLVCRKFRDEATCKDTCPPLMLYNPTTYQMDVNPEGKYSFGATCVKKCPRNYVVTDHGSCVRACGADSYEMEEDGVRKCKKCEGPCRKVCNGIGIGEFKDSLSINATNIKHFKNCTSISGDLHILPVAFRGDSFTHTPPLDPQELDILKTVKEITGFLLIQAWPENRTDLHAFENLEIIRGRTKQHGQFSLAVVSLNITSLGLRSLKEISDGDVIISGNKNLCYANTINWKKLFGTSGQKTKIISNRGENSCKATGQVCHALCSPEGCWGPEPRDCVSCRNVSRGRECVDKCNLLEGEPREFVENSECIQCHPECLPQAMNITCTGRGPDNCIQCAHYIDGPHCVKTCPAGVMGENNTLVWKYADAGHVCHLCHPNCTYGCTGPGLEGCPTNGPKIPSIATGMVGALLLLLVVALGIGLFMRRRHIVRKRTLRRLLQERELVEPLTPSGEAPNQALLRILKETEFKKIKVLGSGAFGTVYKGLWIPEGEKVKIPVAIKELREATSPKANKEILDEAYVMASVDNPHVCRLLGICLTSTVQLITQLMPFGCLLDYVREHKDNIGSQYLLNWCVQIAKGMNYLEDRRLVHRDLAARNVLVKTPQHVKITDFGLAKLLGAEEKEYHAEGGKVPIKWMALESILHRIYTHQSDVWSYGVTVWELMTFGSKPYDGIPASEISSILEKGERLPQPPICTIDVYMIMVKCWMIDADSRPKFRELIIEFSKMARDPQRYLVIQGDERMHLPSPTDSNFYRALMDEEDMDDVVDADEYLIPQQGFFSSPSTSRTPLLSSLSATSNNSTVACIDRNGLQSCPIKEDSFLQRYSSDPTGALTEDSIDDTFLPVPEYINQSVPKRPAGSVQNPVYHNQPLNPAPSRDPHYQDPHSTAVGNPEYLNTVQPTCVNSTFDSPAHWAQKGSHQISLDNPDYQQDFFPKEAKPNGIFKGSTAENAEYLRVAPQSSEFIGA

As for `C=CC(=O)N1CCC[C@@H](n2nc(-c3ccc(Oc4ccccc4)cc3)c3c(N)ncnc32)C1` [ibrutinib, 1-[(3R)-3-[4-amino-3-(4-phenoxyphenyl)-1H-pyrazolo[3,4-d]pyrimidin-1-yl]piperidin-1-yl]prop-2-en-1-one], in series [1], the “antagonism of rituximab ADCC effects mediated by NK cells” value was “undesirably antagonizes rituximab ADCC effects”. For the same compound, the “inhibition of GPVI platelet aggregation” value in series [2] is on record as “significantly inhibits GPVI platelet aggregation”.
Regarding `C=CC(=O)Nc1cccc(Nc2nc(Nc3ccc(OCCOC)cc3)ncc2F)c1` [Formula (XXVII), N-(3-((5-fluoro-2-((4-(2-methoxyethoxy)phenyl)amino)pyrimidin-4-yl)amino)phenyl)acrylamide], in series [3], the “effect on human platelet-mediated thrombus formation” value is reported as “effect similar to Formula XX-A (ibrutinib)”.
In the case of “obinutuzumab: type II glycoengineered CD20 monoclonal antibody”, in series [4], the “MRD-negative complete response, number” value was 1 and the Response rate is recorded as 62%. In series [5], the “Grade 3 IRRs” value was 15%, the “Grade 3 reactions among hypotension cases” value is reported as 25%, the “Grade 4 IRRs” value is recorded as “no Grade 4” and the “IRR cases developing symptoms of hypotension” value is reported as 60%. Moreover, in series [5], the “Patients developing IRR” value was 95%, the “Patients experiencing IRRs” value is recorded as “all patients” and the “Patients experiencing all grade AE” value is recorded as 100%.
One may read the IC50 as the concentration at which inhibition is half-maximal. A lower IC50 goes with greater potency in that assay. `CC#CC(=O)N1CCC[C@H]1c1nc(-c2ccc(C(=O)Nc3ccccn3)cc2)c2c(N)nccn12` [Formula (XVIII), (S)-4-(8-amino-3-(1-(but-2-ynoyl)pyrrolidin-2-yl)imidazo[1,5-a]pyrazin-1-yl)-N-(pyridin-2-yl)benzamide]: the “neurobehavioral effects or body temperature” value in series [6] is given as “no adverse effects”. For the same compound, the “complete responses (CR)” value in series [7] was “not observed”. In addition, the “antagonism of rituximab ADCC effects mediated by NK cells” value in series [1] is on record as “does not antagonize rituximab ADCC effects”. In addition, the “Metabolites formed in hepatocytes” value in [8] (14C-labeled compound, mouse, rat, dog, rabbit, monkey, human hepatocytes) is “two mono-oxidized metabolites and a glutathione conjugate”. Also, the Unique human metabolite result in [8] (hepatocytes) is “No unique human metabolite was identified”. Further, in series [9], the “NK cells and monocytic MDSC subsets in peripheral blood” value is “increase in frequency”. For the same compound, the “effect on percentage of CD56+/CD107a+ NK cells (obinutuzumab-stimulated NK cell degranulation)” value in series [10] is “minimal effect”. Also, the “in vivo potency at inhibiting expression of activation markers CD69 and CD86, versus ibrutinib” value in series [11] was “more potent”. Also, the “Metabolism by CYPs (loss of parent drug)” value in [12] (in vitro) is given as “metabolized by CYP3A4”. For the same compound, the “Potential for clinical drug-drug interactions through CYP substrates” value in [12] (nonclinical CYP interaction studies) is “very unlikely to cause clinical drug-drug interactions”. Also, the “Irreversible occupancy of total BTK in granulocytic and monocytic MDSCs” value in [13] was “Complete BTK occupancy”. In series [2] (Platelet, purified human platelets, Convulxin (CVX)), this compound gave an IC50 of 1150 nM. Also, the “inhibition of GPVI platelet aggregation” value in series [2] is given as “does not”. Also, the “Glutathione binding / depletion” value in series [14] is on record as “binds to glutathione but does not deplete glutathione”. Besides, the respiratory function result in [15] was “no treatment-related adverse effects”. Also, in series [16], the “inhibition of in vitro EGFR phosphorylation” value is given as “no inhibition”.
As usually defined, the EC50 is the concentration giving half of the maximal effect. A high value points to weaker potency. As to `C=CC(=O)Nc1cccc(Nc2nc(Nc3ccc(OCCOC)cc3)ncc2F)c1` [CC-292], in series [17], it took 121 nM to reach a half-maximal effect (EC50).
